Source: patent publication EP1145714A1, “DRUGS” (Takeda Chemical Industries, Ltd., priority 1998, dated 2000)

Assays:
[1] = tested on: vomiting induced by morphine in ferrets; experiment: Vomiting induced by morphine in ferrets, oral dosing; format: in vivo; details: morphine 0.3 mg/kg subcutaneous; for A: Number of ferrets with retching/number of tested ferrets / B: Frequency of retching (mean ± SD) / C: Time period until first retching (minute; mean ± SD) / D: Duration of retching (minute; mean ± SD) / E: Number of ferrets with vomiting/number of tested ferrets / F: Frequency of vomiting (mean ± SD) / G: Time period until first vomiting (minute; mean ± SD) / H: Duration of vomiting (minute; mean ± SD): 30 minutes
Experimental: Male 6 or 7 ferrets (1.6 to 2.0 kg) per one group were used. Morphine was subcutaneously administered at0.3 mg/0.3 ml/kg. 2.5 hours before morphine dosing, a small amount of a feed was given to the animals. 30 minutes thereafter, predetermined doses of the compound No. 3 were orally given. To a control animal group under no fasting was orally given a predetermined volume of 0.5 % methyl cellulose solution. A predetermined volume of ondansetron was orally given to the animals under fasting. To a control animal group of ondansetron under fasting was orally given a predetermined volume of physiological saline. The frequency of vomiting was counted up to 30 minutes after morphine dosing. The compound No. 3 was suspended in 0.5 % methyl cellulose solution and was then orally dosed at a ratio of 1 ml per 1 kg body weight. An injection of ondansetron at a concentration of 0.2 w/v % was orally dosed. Additionally, 0.5 % methyl cellulose solution was orally given at a ratio of 1 ml per 1 kg body weight, while physiological saline was orally given at a ratio of 1 ml per 1 kg body weight. The data relating to the frequency of vomiting, the latency and the time period from the occurrence of vomiting to the termination thereof were statistically analyzed by the Dunnett test or t test, with reference to the difference from the control group.
(§1) The retching suppression ratio and vomiting suppression ratio were calculated by the following formula. [Frequency of retching or vomiting in control] - [Frequency of retching or vomiting in animals dosed with compound No. 3] / [Frequency of retching or vomiting in control] x 100 (%) [formula]

[2] = tested on: acute and delayed vomiting induced by cisplatin in ferrets; experiment: Acute and delayed vomiting induced by cisplatin in ferrets, oral dosing once or twice daily; format: in vivo; details: cisplatin 5 mg/kg i.p.; for Duration (in hour; mean ± SD) / Latency (in hour; mean ± SD) / On day 0 (0-24 hours): frequency of retching and vomiting (mean ± SD) / On day 0 (0-24 hours): number of ferrets with vomiting/ number of tested ferrets / On days 1-2(24-48 hours): frequency of retching and vomiting (mean ± SD) / On days 1-2(24-48 hours): number of ferrets with vomiting/ number of tested ferrets / Total frequency of retching and vomiting (on days 0-2; 0-72 hours): twice daily
Experimental: Male 4 to 6 ferrets (1.2 to 2.2 kg) per one group were used. Cisplatin was intraperitoneally given at 5 mg/5ml/kg. 30 minutes prior to cisplatin administration and 24 and 48 hours after cisplatin administration, predetermined doses of the compound No. 3 were orally given in case of dosing once daily. 30 minutes prior to cisplatin administration and 12, 24, 36, 48 and 60 hours after cisplatin administration, predetermined doses of the compound No. 3 were orally given in case of dosing twice daily. 30 minutes prior to the dosing of the compound No. 3, a small amount of a feed was given to the animals in any of the cases. Similarly, a predetermined volume of 0.5 % methyl cellulose solution was similarly given orally to a control animal group under no fasting. A predetermined dose of ondansetron was orally given to the animals under fasting. To a control animal group of ondansetron, a predetermined volume of physiological saline was orally given to the animals under fasting. The frequency of vomiting was counted in number, up to 72 hours after cisplatin administration.
The compound No. 3 was suspended in 0.5 % methyl cellulose solution, for oral dosing at predetermined doses at a ratio of 1 ml per 1 kg body weight. An injection of ondansetron at 0.2 w/v % concentration was orally given at a predetermined volume. Additionally, 0.5 % methyl cellulose solution was orally given at a ratio of 1 ml per 1 kg body weight, while physiological saline was orally given at a ratio of 0.5 to 1.5 ml per 1 kg body weight. The data relating to the frequency of vomiting, the time period (latency) until first vomiting and the time period from the occurrence of vomiting to the termination thereof were statistically analyzed by the Dunnett test, with reference to the difference from the control group.
as §1, with “The acute vomiting suppression ratio, delayed vomiting” for “The retching”, “and total” for “and”

Structure (SMILES): Cc1ccc(-c2c3n(c(=O)c4ncccc24)CC[C@@H](C)CN(Cc2cc(C(F)(F)F)cc(C(F)(F)F)c2)C3=O)cc1 [Cpd. No.3, (9R)-7-[3,5-bis(trifluoromethyl)benzyl]-6,7,8,9,10,11-hexahydro-9-methyl-5-(4-methylphenyl)-6,13-dioxo-13H-[1,4]diazocino[2,1-g][1,7]naphthylidine]
- Acute vomiting suppression ratio ([1]; 1 mg/kg p.o.): 31 % NS
- Effect on retching and vomiting (in words) ([1]; 1 mg/kg p.o.): likely to be suppressed
- Pseudo-vomiting suppression ratio ([1]; 1 mg/kg p.o.): 43 % NS
- A: Number of ferrets with retching/number of tested ferrets ([1]; 1 mg/kg p.o.): 4/6
- B: Frequency of retching (mean ± SD) ([1]; 1 mg/kg p.o.): 18.3 ± 7.0
- C: Time period until first retching (minute; mean ± SD) ([1]; 1 mg/kg p.o.): 12.3 ± 5.6 min
- D: Duration of retching (minute; mean ± SD) ([1]; 1 mg/kg p.o.): 5.5 ± 1.9 min
- E: Number of ferrets with vomiting/number of tested ferrets ([1]; 1 mg/kg p.o.): 4/6
- F: Frequency of vomiting (mean ± SD) ([1]; 1 mg/kg p.o.): 2.5 ± 1.0
- G: Time period until first vomiting (minute; mean ± SD) ([1]; 1 mg/kg p.o.): 13.3 ± 5.4 min
- H: Duration of vomiting (minute; mean ± SD) ([1]; 1 mg/kg p.o.): 3.8 ± 1.9 min
- Acute vomiting suppression ratio ([1]; 3 mg/kg p.o.): 86 % a
- Effect on retching and vomiting (in words) ([1]; 3 mg/kg p.o.): significantly suppressed
- Pseudo-vomiting suppression ratio ([1]; 3 mg/kg p.o.): 79 % b
- A: Number of ferrets with retching/number of tested ferrets ([1]; 3 mg/kg p.o.): 5/6
- B: Frequency of retching (mean ± SD) ([1]; 3 mg/kg p.o.): 6.8 ± 2.6 b
- C: Time period until first retching (minute; mean ± SD) ([1]; 3 mg/kg p.o.): 10.5 ± 3.9 min
- D: Duration of retching (minute; mean ± SD) ([1]; 3 mg/kg p.o.): 2.7 ± 1.7 min
- E: Number of ferrets with vomiting/number of tested ferrets ([1]; 3 mg/kg p.o.): 1/6
- F: Frequency of vomiting (mean ± SD) ([1]; 3 mg/kg p.o.): 0.5 ± 0.5 a
- G: Time period until first vomiting (minute; mean ± SD) ([1]; 3 mg/kg p.o.): 25.8 ± 4.2 b minute
- H: Duration of vomiting (minute; mean ± SD) ([1]; 3 mg/kg p.o.): 1.5 ± 1.5 min
- Acute vomiting suppression ratio (0 to 24 hours after cisplatin dosing) ([2]; 0.03 mg/kg p.o. twice daily): 25 % NS
- Delayed vomiting suppression ratio (24 to 72 hours after cisplatin dosing) ([2]; 0.03 mg/kg p.o. twice daily): 31 % NS
- Total vomiting suppression ratio (0 to 72 hours after cisplatin dosing) ([2]; 0.03 mg/kg p.o. twice daily): 30 % NS
- Duration (in hour; mean ± SD) ([2]; 0.03 mg/kg × 2 p.o.): 50.8 ± 7.3 h
- Latency (in hour; mean ± SD) ([2]; 0.03 mg/kg × 2 p.o.): 13.4 ± 4.9 h
- On day 0 (0-24 hours): frequency of retching and vomiting (mean ± SD) ([2]; 0.03 mg/kg × 2 p.o.): 24.8 ± 14.8
- On day 0 (0-24 hours): number of ferrets with vomiting/ number of tested ferrets ([2]; 0.03 mg/kg × 2 p.o.): 3/4
- On days 1-2(24-48 hours): frequency of retching and vomiting (mean ± SD) ([2]; 0.03 mg/kg × 2 p.o.): 245.8 ± 34.3
- On days 1-2(24-48 hours): number of ferrets with vomiting/ number of tested ferrets ([2]; 0.03 mg/kg × 2 p.o.): 4/4
- Total frequency of retching and vomiting (on days 0-2; 0-72 hours) ([2]; 0.03 mg/kg × 2 p.o.): 270.5 ± 43.7
- Acute vomiting suppression ratio (0 to 24 hours after cisplatin dosing) ([2]; 0.1 mg/kg p.o. twice daily): 21 % NS
- Delayed vomiting suppression ratio (24 to 72 hours after cisplatin dosing) ([2]; 0.1 mg/kg p.o. twice daily): 37 % a
- Effect on delayed vomiting induced by cisplatin (in words) ([2]; 0.1 mg/kg p.o. twice daily): significantly suppressed
- Total vomiting suppression ratio (0 to 72 hours after cisplatin dosing) ([2]; 0.1 mg/kg p.o. twice daily): 36 % a
- Duration (in hour; mean ± SD) ([2]; 0.1 mg/kg × 2 p.o.): 54.8 ± 6.1 h
- Latency (in hour; mean ± SD) ([2]; 0.1 mg/kg × 2 p.o.): 13.3 ± 6.3 h
- On day 0 (0-24 hours): frequency of retching and vomiting (mean ± SD) ([2]; 0.1 mg/kg × 2 p.o.): 26.0 ± 11.2
- On day 0 (0-24 hours): number of ferrets with vomiting/ number of tested ferrets ([2]; 0.1 mg/kg × 2 p.o.): 3/4
- On days 1-2(24-48 hours): frequency of retching and vomiting (mean ± SD) ([2]; 0.1 mg/kg × 2 p.o.): 222.0 ± 20.7 a
- On days 1-2(24-48 hours): number of ferrets with vomiting/ number of tested ferrets ([2]; 0.1 mg/kg × 2 p.o.): 4/4
- Total frequency of retching and vomiting (on days 0-2; 0-72 hours) ([2]; 0.1 mg/kg × 2 p.o.): 248.0 ± 10.7 a
- Acute vomiting suppression ratio (0 to 24 hours after cisplatin dosing) ([2]; 0.3 mg/kg p.o. twice daily): 100 % NS
- Delayed vomiting suppression ratio (24 to 72 hours after cisplatin dosing) ([2]; 0.3 mg/kg p.o. twice daily): 41 % b
- Total vomiting suppression ratio (0 to 72 hours after cisplatin dosing) ([2]; 0.3 mg/kg p.o. twice daily): 46 % b
- Duration (in hour; mean ± SD) ([2]; 0.3 mg/kg × 2 p.o.): 31.1 ± 1.9 a hour
- Latency (in hour; mean ± SD) ([2]; 0.3 mg/kg × 2 p.o.): 34.5 ± 3.4 b hour
- On day 0 (0-24 hours): frequency of retching and vomiting (mean ± SD) ([2]; 0.3 mg/kg × 2 p.o.): 0
- On day 0 (0-24 hours): number of ferrets with vomiting/ number of tested ferrets ([2]; 0.3 mg/kg × 2 p.o.): 0/4
